Measurements: patent US20080039532A1, “Compounds For Specific Viral Target” (priority 2004, published 2008)
Where “and” joins values, the source holds several entries; their conditions need not be identical. Identical values can stand only once. Ends that are not written are not given here. linker‑R1‑R2‑M = not defined here

What was measured:
HIV-1 Strain IIIB = assay: Determination of IC-50 of antiviral drugs by reverse transcriptase assay in PHA-stimulated CBMC; type: cell-based; details: for RT Results (cpm) (Day 7): +drugs 7 days, replicate columns; for anti-HIV activity (inhibition of reverse-transcriptase activity of HIV-1) as compared to native C34: standard in vitro assay
Experimental: Determination of IC-50 for Assessing the Activity of Antiviral Drugs Using HIV-1 Strain IIIB
The assay is performed in a 96-well plate with 500,000 PHA-stimulated CBMC (cord blood mononuclear cells) per well, 2 wells per drug concentration, with a minimum of 6 concentrations per drug. Media used is RPMI 1640 with 10% FBS, penicilin (100 U/ml), streptomycine (100 μg/ml), glutamine (2 mM), hydrocortisone (5 μg/ml), and IL-2 (20 U/ml).
Control drug stocks are prepared by adding 2 ml of buffer to the native compounds or the reactive compounds. The stocks are stored at −20 degrees Celsius. The drug concentrations were determined by ConjuChem Inc. [drawing 76] Addition of the Compound Prior to Cell Infection
Target cells are incubated with different compounds concentrations for 30-60 minutes at 37 degrees Celsius prior to addition of virus (multiplicity of infection (MOI)=0.1-1.0). Following plating, target cells are in the continuous presence of the different concentrations of inhibitor for a total of 7 days.
Following 3-4 days of incubation, each compound is replenished.
Reverse transcriptase assay is used to measure the IC50.
CC50 (cytotoxic concentration) is also evaluated for all compounds.
3TC is used as a control inhibitor

[1] = biological target: N36 peptide (CJC-1592) derived from the N-heptad repeat of HIV-1's gp41 glycoprotein (Human immunodeficiency virus type 1 group M subtype B, UniProt P04578); details: 1 hour incubation at room temperature; 17.5% acrylamide; compared to native C34
Experimental: Following the 1 hour incubation at room temperature, at least 20 micrograms of total N36/C34 peptide mixture were loaded into each well and separated using Native-polyacrylamide gel electrophoresis (17.5% acrylamide) and stained using Coomassie Brilliant Blue. Unlike SDS-PAGE, Native-PAGE allows one to visualize the formation of six-helix bundles at approximately 28 kDa composed of three central N36 peptides surrounded by three C34 peptides. The formation of this structure and its analogs among other viruses is critical to the subsequent membrane fusion events.

Substance | RT Results (cpm) (Day 7) (HIV-1 Strain IIIB; Conc 125 nm) | RT Results (cpm) (Day 7) (HIV-1 Strain IIIB; Conc 600 nm) | RT Results (cpm) (Day 7) (HIV-1 Strain IIIB; Conc 3000 nm) | anti-HIV activity (inhibition of reverse-transcriptase activity of HIV-1) as compared to native C34 (HIV-1 Strain IIIB) | efficiency of the binding element in binding to its viral target, compared to native C34 (HIV-1 Strain IIIB; inferred from anti-HIV activity, N-heptad repeat of HIV-1's gp41) | binding of C34 derivative to N36 peptide on Native-PAGE [1]
SEQ ID NO: 93: native (unreactive, non-covalent) version of C34 (Ac-WMEWDREINNYTSLIHSLIEESQNQQERNEQELL) [reference compound] | 5854 cpm and 5040 cpm and 5219 cpm | 4924 cpm and 5850 cpm and 5093 cpm | 5811 cpm and 6955 cpm and 5973 cpm | essentially no loss in anti-HIV activity |  | 
SEQ ID NO: 32: C34 with linker-R1-R2-M inserted at position Asp5 (Ac-WMEWK(linker‑R1‑R2‑M)REINNYTSLIHSLIEESQNQQERNEQELL; not fully specified; reading uncertain) | 6322 cpm and 6929 cpm and 5909 cpm | 6477 cpm and 11889 cpm and 6030 cpm | 7967 cpm and 5896 cpm and 6208 cpm | as effectively as the native C34 | as efficient in binding to its viral target as native C34 | does not impede C34 from binding to its target N36 peptide
